Laboratory results published in patent publication US20130317040A1, “METHODS FOR TREATING SYSTEMIC LUPUS ERYTHEMATOSUS USING HIV PROTEASE INHIBITORS” (The Feinstein Institute of Medical Research, priority 2010, published 2013).

Columns and labels:
[1] = tested on: lupus anti-dsDNA monoclonal antibody, R4A; experiment: Competitive ELISA, R4A binding to bound DWEYS peptide; parameters: species or system mouse; conditions: for inhibition of R4A binding, DWEYS: competitive ELISA, bound D-DWEYS, at the most effective concentration of compound; for inhibition of R4A binding to D-DWEYS-5 peptide on ELISAs: R4A 2 μg/ml, 1 μM, 10 μM and 100 μM, highest concentrations showed the greatest inhibition
Method: (§1) To test whether these antiviral drugs might inhibit R4A binding, competitive ELISAs, with bound DWEYS peptide, bound dsDNA, or bound C1q protein, were performed. […] Activity in these ELISAs is predictive of binding activity with naturally occurring anti-dsDNA antibodies in lupus patients.
(§2) ELISAs. […] Antigens were absorbed to microtiter plate wells (either D-DWEYS (20 μg/ml) in PBS, calf thymus DNA (100 μg/ml) in NaHCO3 (0.1M, pH 8.6) or full length complement component C1q (10-20 μg/ml) in PBS) overnight at 37° C. […] The competitive ELISA was performed as described, using R4A monoclonal antibodies (2-20 μg/ml). […] The plates were washed and alkaline phosphatase-conjugated goat anti-mouse IgG antibody was added for 1 h at 37° C.

[2] = tested on: lupus anti-dsDNA monoclonal antibody, R4A; experiment: Competitive ELISA, R4A binding to bound dsDNA (calf thymus DNA); parameters: species or system mouse; conditions: for inhibition of R4A binding, DNA: competitive ELISA, bound calf thymus DNA, at the most effective concentration of compound
Method: as §1, §2

[3] = tested on: lupus anti-dsDNA monoclonal antibody, R4A; experiment: Competitive ELISA, R4A binding to bound C1q protein; parameters: species or system mouse; conditions: at the most effective concentration of compound
Method: as §1, §2

[4] = tested on: mouse monoclonal anti-dsDNA antibody, R4A; experiment: Deposition of R4A to kidney glomeruli ex vivo; format: binding; conditions: detected with fluorescently-labeled secondary antibody
Text: Nephrotoxicity: nelfinavir was also found to suppress pathologic deposition of mouse monoclonal anti-dsDNA antibody, […], to kidney glomeruli ex vivo. […] For methodology see Bloom, O. et al., (2011), PNAS 108:10255-10259 and Zhang, J. et al., (2009), J. Autoimmun. 33:270-274.

[5] = tested on: lupus patient sera components binding to DNA (anti-dsDNA antibodies); experiment: ELISA, lupus patient sera binding to DNA; parameters: species or system human; conditions: compound at 1, 10 and 100 micromolar; sera from lupus patients with elevated anti-dsDNA titers
Text: In early tests, inhibition of lupus patient sera components binding to DNA by nelfinavir was observed (data not shown). Sera, collected from lupus patients with moderately active disease and elevated titers of anti-dsDNA antibodies, was used for an ELISA assay for binding to DNA. The addition of nelfinavir in micromolar concentrations of 1, 10 and 100 decreased DNA binding by an average of 43%.

[6] = tested on: R4A-induced apoptosis in the central nervous system; experiment: R4A-induced neurotoxicity in vivo, hippocampal injection, TUNEL staining; conditions: R4A pre-incubated with inhibitor 15 min at 37° C., injected into hippocampus; brain slices after 48 hours
Method: Neurotoxicity: protection from R4A-induced apoptosis in the central nervous system was assessed by TUNEL staining. […] R4A was pre-incubated with vehicle or HIV protease inhibitors for 15 min. at 37° C. The preparation was then stereotaxically injected into the hippocampus of test animals. After 48 hours, brain slices at the injection site were subjected to TUNEL staining. […] For methodology see Bloom, O. et al., (2011), supra, and Zhang, J. et al., (2009), supra.

[7] = in vivo; cited from earlier work
cytochrome P-450 enzymes = conditions: cited from earlier work
[8] = R4A 5 μg/ml, compound at 25 μM and 50 μM

Structure (SMILES) | inhibition of R4A binding, DWEYS [1] | inhibition of R4A binding, C1q assay [3] | inhibition of R4A binding to D-DWEYS-5 peptide on ELISAs [1] | R4A binding (deposition) to kidney glomeruli ex vivo [4] | inhibition of R4A binding to DWEYS peptide on ELISAs [1, 8] | inhibition of R4A binding, DNA [2] | inhibition of R4A binding to DNA on ELISAs [2, 8] | decrease of lupus patient sera DNA binding (average) [5] | protection from R4A neurotoxicity (TUNEL staining) [6] | time until steady state of the drug is achieved [7] | metabolizing cytochrome P-450 enzymes (cytochrome P-450 enzymes)
COC(=O)N[C@H](C(=O)N[C@@H](Cc1ccccc1)[C@@H](O)CN(Cc1ccc(-c2ccccn2)cc1)NC(=O)[C@@H](NC(=O)OC)C(C)(C)C)C(C)(C)C [Atazanavir, atazanavir] | 46% | 64% | improved inhibition | only nelfinavir decreased | – | 38% | – | – | – | – | –
CC(C)CN(C[C@@H](O)[C@H](Cc1ccccc1)NC(=O)O[C@H]1CO[C@H]2OCC[C@H]21)S(=O)(=O)c1ccc(N)cc1 [Darunavir, darunavir] | 16% | 0% | – | – | – | 3% | – | – | – | – | –
Cc1cccc(C)c1OCC(=O)N[C@@H](Cc1ccccc1)[C@@H](O)C[C@H](Cc1ccccc1)NC(=O)[C@H](C(C)C)N1CCCNC1=O [Lopinavir, lopinavir] | 56% | 38% | improved inhibition | only nelfinavir decreased | – | 32% | – | – | – | – | –
CC(C)c1nc(CN(C)C(=O)N[C@H](C(=O)N[C@@H](Cc2ccccc2)C[C@H](O)[C@H](Cc2ccccc2)NC(=O)OCc2cncs2)C(C)C)cs1 [Ritonavir, ritonavir] | 8% | 13% | – | – | – | 0% | – | – | – | – | –
Cc1c(O)cccc1C(=O)N[C@@H](CSc1ccccc1)[C@H](O)CN1C[C@H]2CCCC[C@H]2C[C@H]1C(=O)NC(C)(C)C [nelfinavir] | – | – | – | decreased the R4A binding | Significant inhibition | – | Significant inhibition | 43% | block neurotoxicity | 6 days | CYP3A4, CYP2C19, CYP2C9, and CYP2D6

Now from value to molecule, other results behind:

inhibition of R4A binding, DWEYS [1] | inhibition of R4A binding, C1q assay [3] | inhibition of R4A binding to D-DWEYS-5 peptide on ELISAs [1] | R4A binding (deposition) to kidney glomeruli ex vivo [4] | inhibition of R4A binding to DWEYS peptide on ELISAs [1, 8] | Structure (SMILES) | inhibition of R4A binding, DNA [2] | inhibition of R4A binding to DNA on ELISAs [2, 8] | decrease of lupus patient sera DNA binding (average) [5] | protection from R4A neurotoxicity (TUNEL staining) [6] | time until steady state of the drug is achieved [7] | metabolizing cytochrome P-450 enzymes (cytochrome P-450 enzymes)
31% | 18% | – | – | – | CC(C)(C)NCC1CC2CCCCC2CN1CC(O)C(Cc1ccccc1)NCC(CCN)NCC1Nc2ccccc2CC1O (stereo not shown) [12W, 2-((4-amino-1-(4-(3-((tert-butylamino)methyl)octahydroisoquinolin-2(1H)-yl)-3-hydroxy-1-phenylbutan-2-ylamino)butan-2-ylamino)methyl)-1,2,3,4-tetrahydroquinolin-3-ol] | 32% | – | – | – | – | –
33% | 54% | improved inhibition | only nelfinavir decreased | – | CC(C)(C)NC(=O)[C@@H]1C[C@@H]2CCCC[C@@H]2CN1C[C@@H](O)[C@H](Cc1ccccc1)NC(=O)[C@H](CC(N)=O)NC(=O)c1ccc2ccccc2n1 [Saquinavir, saquinavir] | 31% | – | – | – | – | –
